Results taken from paper PMC11375794, “Discovery of new Hsp90–Cdc37 protein–protein interaction inhibitors: in silico screening and optimization of anticancer activity” (RSC Advances, 2024).

Key:
[1] = tested on: Hsp90 client protein levels (Cdk4, Akt, c-Raf, ERα, IGF1R) and Hsp70, Hsp90 in MCF-7 cells; experiment: Western blot of Hsp90 client proteins and heat shock proteins; assay type: cell-based; conditions: MCF-7, 20 μM, 24 hours
Protocol: MCF-7 cells were treated with compounds 8c (20 μM and 50 μM), 13g (20 μM and 50 μM) and DDO-5936 (20 μM) or 0.5% DMSO as a negative control. The cells were incubated with the compounds or negative control for 24 hours. After incubation, the cells were rinsed with PBS (Gibco, Thermo Fisher Scientific, Waltham, MA, USA) and lysed using RIPA buffer containing 50 mM Tris–HCl pH 7.4, 150 mM NaCl, 1% NP-40, 0.5% sodium deoxycholate, and 1 mM EDTA. The RIPA buffer was further supplemented with Halt™ Protease Inhibitor Cocktail and Halt™ Phosphatase Inhibitor Cocktail (both from Thermo Fisher Scientific, Waltham, MA, USA) at a 1 : 100 dilution. The lysates were then frozen for at least 24 hours. Upon thawing, the lysates were sonicated and centrifuged at 15 000 rpm for 20 minutes at 4 °C. Only the supernatants were collected, and protein concentration was measured using the DC protein assay (Bio-Rad, Hercules, California, USA). Proteins (20 μg) were separated by SDS-PAGE on a 10% acrylamide/bisacrylamide gel, running at 80 V for 15 minutes followed by 130 V for 60 minutes. The separated proteins were then transferred onto a nitrocellulose membrane using the iBlot 2 Dry Blotting System (Thermo Fisher Scientific, Waltham, MA, USA). The membranes were blocked with 5% BSA for 1 hour at room temperature to prevent nonspecific binding. Primary antibodies were then added, and the membranes were incubated overnight at 4 °C. The primary antibodies (Cell Signaling, Danvers, MA, USA) used included anti-β-ActinMouse mAb (1 : 5000), anti-Hsp90 Rabbit mAb (1 : 1000), anti-Hsp70 Mouse mAb (1 : 1000), anti-IGF1R Rabbit (1 : 1000), anti-CDK4 Rabbit (1 : 1000), anti-ERα Mouse mAb (1 : 1000), anti-Akt Rabbit mAb (1 : 1000), and anti-c-Raf Rabbit mAb (1 : 1000). Secondary antibodies included anti-rabbit IgG, HRP-linked antibody (1 : 10 000), and anti-mouse IgG, HRP-linked antibody (1 : 10 000), which were incubated with the membranes for 1 hour at room temperature. Following washes, SuperSignal™ West Femto Maximum Sensitivity Substrate (Thermo Fisher Scientific, Waltham, MA, USA) was applied. Visualization of the blots was performed using the UVITEC Cambridge Imaging System (UVITEC, Cambridge, UK), and densitometric analysis of the western blot bands was conducted using NineAlliance software. Relative protein densities were calculated in relation to β-actin, used as a loading control.

[2] = tested on: MCF-7 breast cancer cell line; experiment: MTS cell viability (antiproliferative) assay in MCF-7; assay type: cell-based; conditions: Homo sapiens, MCF7
Protocol: (§1) Hormone-positive breast cancer cell line MCF-7 (ATCC-HTB-22; ATCC) was grown in Dulbecco's Modified Eagle's Medium (DMEM), while Ewing sarcoma cell line SK-N-MC (a kind gift from Beat Schäfer) and THP-1 (ATCC-TIB-202; ATCC) cells were grown in Roswell Park Memorial Institute (RPMI) 1640. The medium was supplemented with 10% heat-inactivated fetal bovine serum (Gibco, Thermo Fisher Scientific, Waltham, MA, USA), 100 U per mL penicillin, 100 μg per mL streptomycin, and 2 mM L-glutamine (all from Sigma-Aldrich, St. Louis, MO, USA). All cell lines were incubated at 37 °C in a 5% CO2 atmosphere.
(§2) The antiproliferative activity of the compounds was evaluated against MCF-7 (ATCC-HTB-22; ATCC), SK-N-MC (a kind gift from Beat Schäfer) and THP-1 (ATCC-TIB-202; ATCC) cancer cell lines using the MTS assay (Promega, Madison, WI, USA). Cells were seeded in 96-well plates at a density of 2 × 10^4 cells per mL in 100 μL of growth medium for THP-1 and were treated with compounds and controls directly, while 3 × 10^3 cells per mL for MCF-7 and SK-N-MC were seeded in 100 μL of growth medium and allowed to adhere overnight following the treatment. In all cases the cells were treated with respective newly prepared compounds, positive controls (17-DMAG for MCF-7 and SK-N-MC; PU-H71 for THP-1) and a vehicle control (0.5% DMSO). The incubation time after treatment was 72 hours, then CellTiter96® Aqueous One Solution Reagent (Promega, Madison, WI, USA) was added to each well. Following a 3 hours incubation, absorbance was measured at 492 nm using BioTek's Synergy™ 4 Hybrid Microplate Reader (Winooski, VT, USA). The measurements were performed in two biological repetitions and each time the experiment was performed in a triplicate. The IC50 values, representing the concentration of inhibitor required for half-maximal inhibition, are the average of three independent experiments and were calculated using GraphPad Prism 9.5.0 software (San Diego, CA, USA).

Asp47Ala mutant of Hsp90 = molecular target: Asp47Ala mutant of Hsp90; design: method as in PMID 31555737; conditions: cited from earlier work
wild-type Hsp90 = molecular target: wild-type Hsp90; design: method as in PMID 31555737; conditions: cited from earlier work
leukemia cell line THP-1 = experiment: MTS cell viability (antiproliferative) assay in THP-1; assay type: cell-based; conditions: Homo sapiens, THP-1, 72 hours, mean ± SD
Protocol: as §1, §2

[3] = tested on: Ewing sarcoma cell line SK-N-MC; experiment: MTS cell viability (antiproliferative) assay in SK-N-MC; assay type: cell-based; conditions: Homo sapiens, SK-N-MC, 72 hours, mean ± SD
Protocol: as §1, §2

Cc1cc(C)c(S(=O)(=O)N(CC(=O)O)c2ccc(Nc3ccnc(N4CCCC4)n3)cc2)c(C)c1 [DDO-5936, reference compound]
ERα level [1]: downregulated | inhibition at 50 µM ([2]; MCF-7, at 50 μM, read-out: growth inhibition): 17% | IC50 ([2]; MTS assay, 72 hours, mean ± SD): > 50 µM | Kd (Asp47Ala mutant of Hsp90): > 100 µM | Kd (wild-type Hsp90): 3.86 µM | IC50 (leukemia cell line THP-1): > 50 µM | IC50 [3]: > 50 µM
